Starred links: 1 amine or outer side, 2 acyl side, 3 side chain; linkers in the order of their positions; H or OH if unused. Positions of bridges follow the written chain, without caps; N, C: chain ends. Residues, ends and D or L forms follow the SMILES beside them. *: point of attachment. C20 diacid = O=C(O)CCCCCCCCCCCCCCCCCCC(=O)*; γGlu = O=C(O)[C@H](CCC(=O)[*:2])N[*:1]
Experiments:
Assay type in all cases: cell-based
[1] = molecular target: T1, rat amylin 3(a) receptor (rat calcitonin(a) receptor + rat RAMP3) (Rattus norvegicus, UniProt P32214+Q9JJ73); experiment: Assay (II)b functional cAMP FlashPlate assay, rat amylin receptor; conditions: Table 11
T1 construct: expressed in transfected cells; host or cells: BHK tk'ts 13
T1 sequence (P32214 25-479 isoform P32214-2 limits assumed): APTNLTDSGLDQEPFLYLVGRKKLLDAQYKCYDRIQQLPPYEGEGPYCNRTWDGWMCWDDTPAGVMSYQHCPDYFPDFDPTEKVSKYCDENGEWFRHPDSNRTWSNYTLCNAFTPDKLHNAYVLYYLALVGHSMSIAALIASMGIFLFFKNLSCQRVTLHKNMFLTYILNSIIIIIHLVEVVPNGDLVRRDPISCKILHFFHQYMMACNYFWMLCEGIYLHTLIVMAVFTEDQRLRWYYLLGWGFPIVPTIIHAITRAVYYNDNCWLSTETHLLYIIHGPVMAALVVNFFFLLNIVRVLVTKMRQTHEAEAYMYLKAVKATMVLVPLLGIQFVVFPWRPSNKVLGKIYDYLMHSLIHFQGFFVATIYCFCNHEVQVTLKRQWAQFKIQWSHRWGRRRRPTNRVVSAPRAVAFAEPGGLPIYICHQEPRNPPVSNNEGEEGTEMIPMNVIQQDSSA
T1 sequence (Q9JJ73 23-147 partner): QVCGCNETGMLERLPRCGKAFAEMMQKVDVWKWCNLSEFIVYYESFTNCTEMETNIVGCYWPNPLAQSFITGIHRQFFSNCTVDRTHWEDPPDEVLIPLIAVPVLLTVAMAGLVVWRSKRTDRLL
How it was run: (§1)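 BHK tk'ts 13 cells transiently transfected with rat calcitonin(a) receptor, alone or with rat RAMP3 (amylin 3(a)), were stimulated 24 hours later with sample for 30 min in buffer containing IBMX. cAMP measured by competitive radioactive FlashPlate assay, scintillation read after 3 h detection incubation.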

[2] = molecular target: T2, rat calcitonin (a) receptor (Rattus norvegicus, UniProt P32214); experiment: Assay (II)b functional cAMP FlashPlate assay, rat calcitonin receptor; conditions: Table 11; read-out: CTa receptor rat EC50
T2 construct: expressed in transfected cells; host or cells: BHK tk'ts 13
T2 sequence (P32214 25-479 isoform P32214-2 limits assumed): T1 sequence (P32214 25-479 isoform P32214-2 limits assumed)
How it was run: as §1

[3] = molecular target: T3, human calcitonin receptor (Homo sapiens, UniProt P30988); experiment: Assay (II)a functional CRE-luciferase assay, human calcitonin receptor; conditions: Table 7; human calcitonin (CTa) receptor
T3 construct: expressed in transfected cells; host or cells: BHK570
T3 sequence (P30988 25-474): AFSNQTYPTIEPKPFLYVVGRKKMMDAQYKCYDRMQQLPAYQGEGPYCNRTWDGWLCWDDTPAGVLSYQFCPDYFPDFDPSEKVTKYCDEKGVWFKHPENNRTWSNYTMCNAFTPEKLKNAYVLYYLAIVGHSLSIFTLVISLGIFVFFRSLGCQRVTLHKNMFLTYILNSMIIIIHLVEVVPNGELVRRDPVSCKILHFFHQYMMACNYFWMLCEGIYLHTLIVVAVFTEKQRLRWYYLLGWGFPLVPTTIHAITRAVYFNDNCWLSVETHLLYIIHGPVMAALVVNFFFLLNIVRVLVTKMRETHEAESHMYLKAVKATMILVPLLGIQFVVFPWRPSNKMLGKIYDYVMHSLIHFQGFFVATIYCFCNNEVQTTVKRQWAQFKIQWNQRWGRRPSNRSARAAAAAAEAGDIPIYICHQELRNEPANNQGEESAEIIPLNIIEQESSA

Structure (SMILES)	EC50 [1]	EC50 [2]	EC50 [3]
CC[C@H](C)[C@H](NC(=O)[C@@H]1CCCN1C(=O)CNC(=O)[C@H](Cc1ccccc1)NC(=O)[C@H](CC(N)=O)NC(=O)[C@H](CC(N)=O)NC(=O)[C@H](CO)NC(=O)[C@H](CO)NC(=O)[C@H](Cc1c[nH]cn1)NC(=O)[C@H](Cc1c[nH]cn1)NC(=O)[C@H](CC(C)C)NC(=O)[C@H](Cc1ccccc1)NC(=O)[C@H](CCC(=O)O)NC(=O)[C@H](C)NC(=O)[C@H](CC(C)C)NC(=O)[C@H](CCCNC(=N)N)NC(=O)[C@H](CCC(N)=O)NC(=O)[C@@H](NC(=O)[C@H](C)NC(=O)[C@@H]1CSSC[C@H](NC(=O)[C@H](CCCCN)NC(=O)[C@H](CCC(=O)O)NC(=O)CC[C@H](NC(=O)CCCCCCCCCCCCCCCCCCC(=O)O)C(=O)O)C(=O)N[C@@H](CC(N)=O)C(=O)N[C@@H]([C@@H](C)O)C(=O)N[C@@H](C)C(=O)N[C@@H]([C@@H](C)O)C(=O)N1)[C@@H](C)O)C(=O)N[C@@H](CC(C)C)C(=O)N1CCC[C@H]1C(=O)N1CCC[C@H]1C(=O)N[C@H](C(=O)N[C@@H](CC(N)=O)C(=O)N[C@H](C(=O)NCC(=O)N[C@@H](CO)C(=O)N[C@@H](Cc1c[nH]cn1)C(=O)N[C@H](C(=O)N[C@@H](Cc1ccc(O)cc1)C(N)=O)[C@@H](C)O)C(C)C)[C@@H](C)O [Example 56, N-alpha-[(S)-4-Carboxy-4-(19-carboxynonadecanoylamino)butyryl]-Glu-[Glu14,His17,His35]-pramlintide] ({C20 diacid-γGlu}-EKCNTATCATQRLAEFLHHSSNNFGPILPPTNVGSHTY-NH2; disulfide 3-8 (inferred))	643 pM	4970 pM	352 pM
CC[C@H](C)[C@H](NC(=O)[C@@H]1CCCN1C(=O)CNC(=O)[C@H](Cc1ccccc1)NC(=O)[C@H](CC(N)=O)NC(=O)[C@H](CC(N)=O)NC(=O)[C@H](CO)NC(=O)[C@H](CO)NC(=O)[C@H](Cc1c[nH]cn1)NC(=O)[C@H](Cc1c[nH]cn1)NC(=O)[C@H](CC(C)C)NC(=O)[C@H](Cc1ccccc1)NC(=O)[C@H](CCC(=O)O)NC(=O)[C@H](C)NC(=O)[C@H](CC(C)C)NC(=O)[C@H](CCCNC(=N)N)NC(=O)[C@H](CCC(N)=O)NC(=O)[C@@H](NC(=O)[C@H](C)NC(=O)[C@@H]1CSSC[C@H](NC(=O)[C@H](Cc2c[nH]cn2)NC(=O)[C@H](Cc2c[nH]cn2)NC(=O)[C@H](Cc2c[nH]cn2)NC(=O)CC[C@H](NC(=O)CCCCCCCCCCCCCCCCCCC(=O)O)C(=O)O)C(=O)N[C@@H](CCCNC(=N)N)C(=O)N[C@@H]([C@@H](C)O)C(=O)N[C@@H](C)C(=O)N[C@@H]([C@@H](C)O)C(=O)N1)[C@@H](C)O)C(=O)N[C@@H](CC(C)C)C(=O)N1CCC[C@H]1C(=O)N1CCC[C@H]1C(=O)N[C@H](C(=O)N[C@@H](CC(N)=O)C(=O)N[C@H](C(=O)NCC(=O)N[C@@H](CO)C(=O)N[C@@H](CC(N)=O)C(=O)N[C@H](C(=O)N[C@@H](Cc1ccc(O)cc1)C(N)=O)[C@@H](C)O)C(C)C)[C@@H](C)O [Example 22, N-alpha-[(S)-4-Carboxy-4-(19-carboxynonadecanoylamino)butyryl]-His-His-[His1,Arg3,Glu14,His17]-pramlintide] ({C20 diacid-γGlu}-HHHCRTATCATQRLAEFLHHSSNNFGPILPPTNVGSNTY-NH2; disulfide 4-9 (inferred))	261 pM	1290 pM	157 pM
CC[C@H](C)[C@H](NC(=O)[C@@H]1CCCN1C(=O)CNC(=O)[C@H](Cc1ccccc1)NC(=O)[C@H](CC(N)=O)NC(=O)[C@H](CC(N)=O)NC(=O)[C@H](CO)NC(=O)[C@H](CO)NC(=O)[C@H](Cc1c[nH]cn1)NC(=O)[C@H](CCCNC(=N)N)NC(=O)[C@H](CC(C)C)NC(=O)[C@H](Cc1ccccc1)NC(=O)[C@H](CCC(=O)O)NC(=O)[C@H](C)NC(=O)[C@H](CC(C)C)NC(=O)[C@H](CCCNC(=N)N)NC(=O)[C@H](CCC(N)=O)NC(=O)[C@@H](NC(=O)[C@H](C)NC(=O)[C@@H]1CSSC[C@H](NC(=O)CNC(=O)CC[C@H](NC(=O)CCCCCCCCCCCCCCCCCCC(=O)O)C(=O)O)C(=O)N[C@@H](CC(N)=O)C(=O)N[C@@H]([C@@H](C)O)C(=O)N[C@@H](C)C(=O)N[C@@H]([C@@H](C)O)C(=O)N1)[C@@H](C)O)C(=O)N[C@@H](CC(C)C)C(=O)N1CCC[C@H]1C(=O)N1CCC[C@H]1C(=O)N[C@H](C(=O)N[C@@H](CC(N)=O)C(=O)N[C@H](C(=O)NCC(=O)N[C@@H](CO)C(=O)N[C@@H](CC(N)=O)C(=O)N[C@H](C(=O)N1CCC[C@H]1C(N)=O)[C@@H](C)O)C(C)C)[C@@H](C)O [Example 88, N-alpha-[(S)-4-Carboxy-4-(19-carboxynonadecanoylamino)butyryl]-[Gly1,Glu14,Arg17,Pro37]-pramlintide] ({C20 diacid-γGlu}-GCNTATCATQRLAEFLRHSSNNFGPILPPTNVGSNTP-NH2; disulfide 2-7 (inferred); C-terminus assumed)	300 pM	370 pM	55 pM
CC(C)C[C@H](NC(=O)[C@H](CCCNC(=N)N)NC(=O)[C@H](CCC(N)=O)NC(=O)[C@@H](NC(=O)[C@H](C)NC(=O)[C@@H]1CSSC[C@H](NC(=O)[C@H](CCCCN)NC(=O)CC[C@H](NC(=O)CCCCCCCCCCCCCCCCCCC(=O)O)C(=O)O)C(=O)N[C@@H](CC(N)=O)C(=O)N[C@@H]([C@@H](C)O)C(=O)N[C@@H](C)C(=O)N[C@@H]([C@@H](C)O)C(=O)N1)[C@@H](C)O)C(=O)N[C@@H](C)C(=O)N[C@@H](CCC(=O)O)C(=O)N[C@@H](Cc1ccccc1)C(=O)N[C@@H](CC(C)C)C(=O)N[C@@H](CCCNC(=N)N)C(=O)N[C@@H](Cc1c[nH]cn1)C(=O)N[C@@H](CO)C(=O)N[C@@H](CO)C(=O)N[C@@H](CC(N)=O)C(=O)N[C@@H](CC(N)=O)C(=O)N[C@@H](Cc1ccccc1)C(=O)NCC(=O)N[C@@H](C)C(=O)N1CCC[C@H]1C(=O)N[C@@H](CC(C)C)C(=O)N[C@@H](CO)C(=O)N[C@@H](CO)C(=O)N[C@H](C(=O)N[C@@H](CC(N)=O)C(=O)N[C@H](C(=O)NCC(=O)N[C@@H](CO)C(=O)N[C@@H](Cc1c[nH]cn1)C(=O)N[C@H](C(=O)N[C@@H](Cc1ccc(O)cc1)C(N)=O)[C@@H](C)O)C(C)C)[C@@H](C)O [Example 65, N-alpha-[(S)-4-Carboxy-4-(19-carboxynonadecanoylamino)butyryl]-[Glu14,Arg17,Ala25,Pro26,Ser28,Ser29,His35]-pramlintide] ({C20 diacid-γGlu}-KCNTATCATQRLAEFLRHSSNNFGAPLSSTNVGSHTY-NH2; disulfide 2-7 (inferred); C-terminus assumed)	1330 pM	5350 pM	342 pM
CC[C@H](C)[C@H](NC(=O)[C@@H]1CCCN1C(=O)CNC(=O)[C@H](Cc1ccccc1)NC(=O)[C@H](CC(N)=O)NC(=O)[C@H](CC(N)=O)NC(=O)[C@H](CO)NC(=O)[C@H](CO)NC(=O)[C@H](Cc1c[nH]cn1)NC(=O)[C@H](Cc1c[nH]cn1)NC(=O)[C@H](CC(C)C)NC(=O)[C@H](Cc1ccccc1)NC(=O)[C@H](CCC(=O)O)NC(=O)[C@H](C)NC(=O)[C@H](CC(C)C)NC(=O)[C@H](CCCNC(=N)N)NC(=O)[C@H](CCC(N)=O)NC(=O)[C@@H](NC(=O)[C@H](C)NC(=O)[C@@H]1CSSC[C@H](NC(=O)[C@H](CCCNC(=N)N)NC(=O)CNC(=O)CC[C@H](NC(=O)CCCCCCCCCCCCCCCCCCC(=O)O)C(=O)O)C(=O)N[C@@H](CC(N)=O)C(=O)N[C@@H]([C@@H](C)O)C(=O)N[C@@H](C)C(=O)N[C@@H]([C@@H](C)O)C(=O)N1)[C@@H](C)O)C(=O)N[C@@H](CC(C)C)C(=O)N1CCC[C@H]1C(=O)N1CCC[C@H]1C(=O)N[C@H](C(=O)N[C@@H](CC(N)=O)C(=O)N[C@H](C(=O)NCC(=O)N[C@@H](CO)C(=O)N[C@@H](CC(N)=O)C(=O)N[C@H](C(=O)N1CCC[C@H]1C(N)=O)[C@@H](C)O)C(C)C)[C@@H](C)O [Example 101, N-alpha-[(S)-4-Carboxy-4-(19-carboxynonadecanoylamino)butyryl]-Gly-[Arg1,Glu14,His17,Pro37]-pramlintide] ({C20 diacid-γGlu}-GRCNTATCATQRLAEFLHHSSNNFGPILPPTNVGSNTP-NH2; disulfide 3-8 (inferred))	75 pM	44 pM	45.5 pM
